What was measured:
Type in all cases: functional
[1] = Growth inhibition of human OVCAR5 cells at 10 uM after 48 hrs by sulforhodamine B assay; conditions: OVCAR-5, 48 h, values are per cent of control
[2] = test system: MDA-MB-435; assay: Growth inhibition of human MDA-MB-435 cells at 10 uM after 48 hrs by sulforhodamine B assay; conditions: MDA-MB-435, 48 h, values are per cent of control
[3] = Growth inhibition of human TK10 cells at 10 uM after 48 hrs by sulforhodamine B assay; conditions: TK-10, 48 h, values are per cent of control
[4] = Growth inhibition of human DU145 cells at 10 uM after 48 hrs by sulforhodamine B assay; conditions: DU-145, 48 h, values are per cent of control
[5] = Growth inhibition of human SKOV3 cells at 10 uM after 48 hrs by sulforhodamine B assay; conditions: SK-OV-3, 48 h, values are per cent of control
[6] = Growth inhibition of human UACC62 cells at 10 uM after 48 hrs by sulforhodamine B assay; conditions: UACC-62, 48 h, values are per cent of control
[7] = Growth inhibition of human NCI-ADR-RES cells at 10 uM after 48 hrs by sulforhodamine B assay; conditions: values are per cent of control
[8] = Growth inhibition of human IGROV1 cells at 10 uM after 48 hrs by sulforhodamine B assay; conditions: IGROV-1, 48 h, values are per cent of control
[9] = Growth inhibition of human HCT116 cells at 10 uM after 48 hrs by sulforhodamine B assay; conditions: HCT-116, 48 h, values are per cent of control
[10] = test system: NCI-H460; assay: Growth inhibition of human NCI-H460 cells at 10 uM after 48 hrs by sulforhodamine B assay; conditions: NCI-H460, 48 h, values are per cent of control
[11] = test system: U-251; assay: Growth inhibition of human U251 cells at 10 uM after 48 hrs by sulforhodamine B assay; conditions: U-251, 48 h, values are per cent of control
[12] = Growth inhibition of human HCC2998 cells at 10 uM after 48 hrs by sulforhodamine B assay; conditions: HCC 2998, 48 h, values are per cent of control
[13] = Growth inhibition of human SNB75 cells at 10 uM after 48 hrs by sulforhodamine B assay; conditions: SNB-75, 48 h, values are per cent of control
[14] = Growth inhibition of human Hs 578T cells at 10 uM after 48 hrs by sulforhodamine B assay; conditions: values are per cent of control
[15] = Growth inhibition of human RXF393 cells at 10 uM after 48 hrs by sulforhodamine B assay; conditions: RXF 393, 48 h, values are per cent of control
[16] = Growth inhibition of human SF268 cells at 10 uM after 48 hrs by sulforhodamine B assay; conditions: SF-268, 48 h, values are per cent of control
[17] = Growth inhibition of human Caki1 cells at 10 uM after 48 hrs by sulforhodamine B assay; conditions: CAKI-1, 48 h, values are per cent of control
[18] = test system: SK-MEL-2; assay: Growth inhibition of human SK-MEL-2 cells at 10 uM after 48 hrs by sulforhodamine B assay; conditions: SK-MEL-2, 48 h, values are per cent of control
[19] = Growth inhibition of human SF295 cells at 10 uM after 48 hrs by sulforhodamine B assay; conditions: SF-295, 48 h, values are per cent of control
[20] = test system: SK-MEL-28; assay: Growth inhibition of human SK-MEL-28 cells at 10 uM after 48 hrs by sulforhodamine B assay; conditions: SK-MEL-28, 48 h, values are per cent of control
[21] = test system: NCI-H522; assay: Growth inhibition of human NCI-H522 cells at 10 uM after 48 hrs by sulforhodamine B assay; conditions: NCI-H522, 48 h, values are per cent of control
[22] = Growth inhibition of human SNB19 cells at 10 uM after 48 hrs by sulforhodamine B assay; conditions: SNB-19, 48 h, values are per cent of control
[23] = Growth inhibition of human HOP62 cells at 10 uM after 48 hrs by sulforhodamine B assay; conditions: HOP-62, 48 h, values are per cent of control
[24] = Growth inhibition of human SW620 cells at 10 uM after 48 hrs by sulforhodamine B assay; conditions: SW-620, 48 h, values are per cent of control
[25] = test system: NCI-H322M; assay: Growth inhibition of human NCI-H322M cells at 10 uM after 48 hrs by sulforhodamine B assay; conditions: values are per cent of control
[26] = test system: NCI-H226; assay: Growth inhibition of human NCI-H226 cells at 10 uM after 48 hrs by sulforhodamine B assay; conditions: NCI-H226, 48 h, values are per cent of control
[27] = test system: M14; assay: Growth inhibition of human M14 cells at 10 uM after 48 hrs by sulforhodamine B assay; conditions: M14, 48 h, values are per cent of control
[28] = test system: SN12C; assay: Growth inhibition of human SN12C cells at 10 uM after 48 hrs by sulforhodamine B assay; conditions: values are per cent of control
[29] = Growth inhibition of human COLO205 cells at 10 uM after 48 hrs by sulforhodamine B assay; conditions: COLO 205, 48 h, values are per cent of control
[30] = test system: K562; assay: Growth inhibition of human K562 cells at 10 uM after 48 hrs by sulforhodamine B assay; conditions: K562, 48 h, values are per cent of control
[31] = test system: A498; assay: Growth inhibition of human A498 cells at 10 uM after 48 hrs by sulforhodamine B assay; conditions: A498, 48 h, values are per cent of control
[32] = Growth inhibition of human OVCAR4 cells at 10 uM after 48 hrs by sulforhodamine B assay; conditions: OVCAR-4, 48 h, values are per cent of control
[33] = test system: SR; assay: Growth inhibition of human SR cells at 10 uM after 48 hrs by sulforhodamine B assay; conditions: values are per cent of control
[34] = Growth inhibition of human HCT15 cells at 10 uM after 48 hrs by sulforhodamine B assay; conditions: HCT-15, 48 h, values are per cent of control
[35] = test system: 786-0; assay: Growth inhibition of human 786-0 cells at 10 uM after 48 hrs by sulforhodamine B assay; conditions: 786-0, 48 h, values are per cent of control
[36] = test system: NCI-H23; assay: Growth inhibition of human NCI-H23 cells at 10 uM after 48 hrs by sulforhodamine B assay; conditions: NCI-H23, 48 h, values are per cent of control
[37] = test system: MDA-MB-468; assay: Growth inhibition of human MDA-MB-468 cells at 10 uM after 48 hrs by sulforhodamine B assay; conditions: MDA-MB-468, 48 h, values are per cent of control
[38] = Growth inhibition of human SF539 cells at 10 uM after 48 hrs by sulforhodamine B assay; conditions: SF-539, 48 h, values are per cent of control
[39] = test system: ACHN; assay: Growth inhibition of human ACHN cells at 10 uM after 48 hrs by sulforhodamine B assay; conditions: values are per cent of control
[40] = test system: T47D; assay: Growth inhibition of human T47D cells at 10 uM after 48 hrs by sulforhodamine B assay; conditions: values are per cent of control

Row | SMILES | growth, % of control at 10 µM [1] [%] | growth, % of control at 10 µM [2] [%] | growth, % of control at 10 µM [3] [%] | growth, % of control at 10 µM [4] [%] | growth, % of control at 10 µM [5] [%] | growth, % of control at 10 µM [6] [%] | growth, % of control at 10 µM [7] [%] | growth, % of control at 10 µM [8] [%] | growth, % of control at 10 µM [9] [%] | growth, % of control at 10 µM [10] [%] | growth, % of control at 10 µM [11] [%] | growth, % of control at 10 µM [12] [%] | growth, % of control at 10 µM [13] [%] | growth, % of control at 10 µM [14] [%] | growth, % of control at 10 µM [15] [%] | growth, % of control at 10 µM [16] [%] | growth, % of control at 10 µM [17] [%] | growth, % of control at 10 µM [18] [%] | growth, % of control at 10 µM [19] [%] | growth, % of control at 10 µM [20] [%] | other results
1 | COc1ccc(/C=C(\C#N)c2ccc3c(c2)OCO3)cc1 | 49.6 | -29.1 | 32.2 | 28.3 | 28.8 | 37.5 | 11.6 | 46.3 | 17.4 | 15.5 | 16.5 | 49.4 | 2.2 | 27.2 | 23.3 | 38.5 | 24.8 | -17.7 | 11.2 | 40.7 | growth, % of control at 10 µM [21]: -2.4%; growth, % of control at 10 µM [22]: 46%; growth, % of control at 10 µM [23]: 43.8%; growth, % of control at 10 µM [24]: 19.6%; growth, % of control at 10 µM [25]: 35.7%; growth, % of control at 10 µM [26]: 71.8%; growth, % of control at 10 µM [27]: 10.5%; growth, % of control at 10 µM [28]: 37.2%; growth, % of control at 10 µM [29]: 11.9%; growth, % of control at 10 µM [30]: 15.8%; growth, % of control at 10 µM [31]: -6.2%; growth, % of control at 10 µM [32]: 67.3%; growth, % of control at 10 µM [33]: 11.8%; growth, % of control at 10 µM [34]: 17.8%; growth, % of control at 10 µM [35]: 50.3%; growth, % of control at 10 µM [36]: 43.2%; growth, % of control at 10 µM [37]: 1.2%; growth, % of control at 10 µM [38]: -13.8%; growth, % of control at 10 µM [39]: 45.7%; growth, % of control at 10 µM [40]: 35.8%
2 | COc1cc(/C(C#N)=C/c2ccc3c(c2)OCCO3)cc(OC)c1OC | 49.1 | -22.2 | 48.5 | 6.7 | 17.6 | 45.4 | 17 | 25.5 | -12.3 | 5.2 | 8.1 | 14.9 | 17.1 | 18.7 | 41.8 | 24.6 | 20 | 24.1 | -8 | 63 | growth, % of control at 10 µM [21]: -27%; growth, % of control at 10 µM [22]: 51.2%; growth, % of control at 10 µM [23]: 40.8%; growth, % of control at 10 µM [24]: 25.2%; growth, % of control at 10 µM [25]: 24.2%; growth, % of control at 10 µM [26]: 43.9%; growth, % of control at 10 µM [27]: 5.7%; growth, % of control at 10 µM [28]: 34.5%; growth, % of control at 10 µM [29]: -74.4%; growth, % of control at 10 µM [30]: 7.5%; growth, % of control at 10 µM [31]: -11%; growth, % of control at 10 µM [32]: 44.9%; growth, % of control at 10 µM [33]: -11%; growth, % of control at 10 µM [34]: 16.5%; growth, % of control at 10 µM [35]: 14.8%; growth, % of control at 10 µM [36]: 20.7%; growth, % of control at 10 µM [37]: -15.1%; growth, % of control at 10 µM [38]: 2.5%; growth, % of control at 10 µM [39]: 34.4%; growth, % of control at 10 µM [40]: 84.4%

Reference: ChEMBL document CHEMBL3792365, “Dioxol and dihydrodioxin analogs of 2- and 3-phenylacetonitriles as potent anti-cancer agents with nanomolar activity against a variety of human cancer cells” (2016)
